Here are results for eight molecules from patent US12648565B2, “Post-emergence herbicide” (Belvedere Foliar LLC, priority 2017, dated 2026).

Like-named read-outs stand apart in the source and are kept apart here.

One experiment has as its system weeds growing in soil. The format is in vivo.
Experiment [1] has as its system all broadleaf species in the trial. The experiment in a line: Trial 64: greenhouse foliar spray trial, broadleaf species. The format is in vivo. Conditions: 0.5 molarity; Days 12 through 34. From the text: (§1) The majority of greenhouse trials conducted to date have been of one basic design: • 1. Samples of different species of flowering plant and grass are exposed to different formulations of the herbicide in accordance with some embodiments, prepared in a range of concentrations, in combination with potentially suitable adjuvants, and applied as an aquatic spray. Experimental plants are purchased either from a local nursery, grown from ornamental and weed seed packs, or grown from seeds of a custom blend prepared specifically for this project and listed in Table 4B. The experimental variable in a typical test is the molar mass concentration of the nutrient salt being examined. Other factors including pH, nitrogen source, and the amount and composition of surfactant or penetrant are constants within a trial except when one of these factors is itself the variable of interest in the experiment. Experiments are controlled unless irrelevant for a particular test. • 2. […] Plants are sprayed with the experimental formulation, always in late afternoon (greenhouse tests), or in early morning (field tests), are observed over as many as several weeks, and their visible state of decline scored by the same examiner on a 9 points system relying on visual effects of toxicity. […]

For experiment [2], the system named is the grass species in the trial. Description: Trial 64: greenhouse foliar spray trial, grass species. The format is in vivo, grasses of pasture seed blend. The following applies: 0.5 molarity; Days 12 through 34.
Text: as §1

The test system of experiment [3] is monocotyledonous grass and liliaceae species (Pasture Blend 2, Allium cepa). The experiment in a line: Trial 41: greenhouse foliar spray trial, monocots, visual toxicity scoring. The format is in vivo, grasses of pasture seed blend. The following applies: 2.0M; Plants P-2 and 2. The text has this:
(§2) FIG. 5 depicts the average toxicity scores for the four plants tested in Trial 41, which tested an embodiment of an herbicide composition and method of using the same. The plants were numbered 22, 2, 3, and 10, corresponding to mixed monocotyledonous and dicotyledonous Pasture Blend 2 and Allium cepa (Onion “Torpedo Red”), and dicotyledonous Antirrhinum majus (Snapdragon) and Cineraria meritima (Dusty Miller, “Silver Dust” (Refer to Tables 4A and 4B for plant species identification). Both of the samples S-1 and S-2 were solutions of 2.0 Molar of ammonium sulfate having a pH of 5.5. (Refer to Tables 6A and 6B for trial solutions, details and results). Results of Trial 41: For broadleaf (dicotyledonous) species of Sample S-1 at 2.0 Molar concentration, excellent phytotoxic effects from 4.0 to 5.0 (“severe-to-fatal”) resulted from Day 3 through trial conclusion at Day 23. For monocotyledonous grass and liliaceae species of Sample S-2 at 2.0 Molar concentration, an initial moderate effect of 3.0 had decreased to 2.3 (“slight”). […] Dicots included in the Pasture 2 samples of S-1 and S-2 were all dead by Day 7. However, separate toxicity results for the monocots and dicots present in the Pasture Blend 2 mix were not recorded, and are not presented in FIG. 5.
(§3) In Trial 41, the herbicide comprised Ammonium sulfate […]; molarity 2.0; unadjusted pH approx. 5.5. […]

For experiment [4], the system named is broadleaf (dicotyledonous) species (Antirrhinum majus, Cineraria meritima). The experiment in a line: Trial 41: greenhouse foliar spray trial, dicots, visual toxicity scoring. The format is in vivo. Conditions: solutions “B”, 2.0M; Plant 3 and 10; by test conclusion at Day 23.
Text: as §2, §3

In experiment [5] the test system is broadleaf (dicot) samples: Brassica oleracea (Kale), Dichondra repens, Fragraia x ananassa (Strawberry). The experiment in a line: Trial 46: greenhouse foliar spray trial, broadleaf (dicot) samples, visual toxicity scoring. The format is in vivo, Fragaria x ananassa. The text has this: (§4) FIG. 9 is a graph showing the average toxicity scores for the […] plants tested in Trial 46, which tested an embodiment of an herbicide composition and method of using the same. The plants were numbered P2, 5, 11A, and 13, corresponding to Pasture Blend 2, Brassica oleracea (Kale), Dichondra repens, Fragraia x ananassa Strawberry (Refer to Tables 4A and 4B for plant species identification). Solutions S-1 and S-2 correspond to solutions of Monopotassium phosphate (KH2PO4) at concentrations of 2.0 molarity (Solution 1) and 1.5 molarity (Solution 2). […] The adjuvants in Trial 46 were […] silicone surfactant and methylated seed oil (MSO).
(§5) The majority of greenhouse trials conducted to date have been of one basic design: • 1. Samples of different species of flowering plant and grass are exposed to different formulations of the herbicide in accordance with some embodiments, prepared in a range of concentrations, in combination with potentially suitable adjuvants, and applied as an aquatic spray. […] Plants are sprayed with the experimental formulation, always in late afternoon (greenhouse tests), or in early morning (field tests), are observed over as many as several weeks, and their visible state of decline scored by the same examiner on a 9 points system relying on visual effects of toxicity. […]

In experiment [6] the test system is the three grasses in P-2 (Pasture Blend 2). The experiment in a line: Trial 46: greenhouse foliar spray trial, grasses, visual toxicity scoring. The format is in vivo, Lolium perenne, Dactylis glomerata, Festuca arundinacea. Conditions: Day 8 through Day 18.
Text: as §4, §5

Experiment [7] has as its system Pasture Blend 1, Calendula officinalis (Common marigold), Cineraria meritima (Dusty miller) (plants 21, 7, 10). Description: Trial 13: greenhouse foliar spray trial, visual toxicity scoring. The format is in vivo. The following applies: Day 11.
Text: as §1

Experiment [8] deals with Pasture Blend 2, Allium cepa (Onion), Cineraria maritima (Dusty miller), Antirrhinum majus (Snapdragon). The experiment in a line: Trial 44: greenhouse foliar spray trial, visual toxicity scoring. It counts as in vivo. From the text:
The majority of greenhouse trials conducted to date have been of one basic design: • 1. Samples of different species of flowering plant and grass are exposed to different formulations of the herbicide in accordance with some embodiments, prepared in a range of concentrations, in combination with potentially suitable adjuvants, and applied as an aquatic spray. Experimental plants are purchased either from a local nursery, grown from ornamental and weed seed packs, or grown from seeds of a custom blend prepared specifically for this project and listed in Table 4B. The experimental variable in a typical test is the molar mass concentration of the nutrient salt being examined. Other factors including pH, nitrogen source, and the amount and composition of surfactant or penetrant are constants within a trial except when one of these factors is itself the variable of interest in the experiment. Experiments are controlled unless irrelevant for a particular test. • 2. Standard techniques to reduce experimental error are employed including use of controls; standard spray application pressures; standardized growing conditions, growing medium, containers, and source irrigation water; and preparation and shipping of samples for laboratory analysis according to required standard laboratory protocols. • 3. Plants are sprayed with the experimental formulation, always in late afternoon (greenhouse tests), or in early morning (field tests), are observed over as many as several weeks, and their visible state of decline scored by the same examiner on a 9 points system relying on visual effects of toxicity. (Table 5.)
Scores of half-value are also used: 0, 0.5, 1.0, 1.5, 2.0, 2.5, etc. • 4. The estimated successful herbicidal effectiveness of a formulation was determined from a combination of averaged and cumulative scores of 4.0 to 5.0 observed approximately 14 days or longer after application: “All leaves and flowers if present desiccated, browned, wilted, and stems or blades lodged; no green tissue visible; no regrowth from roots visible.”
S-1 corresponds to the highest concentration of active nutrient tested, S-3 corresponds to the lowest concentration of nutrient tested and S-2 represents an intermediate level.

The subject of another experiment is plants. The experiment in a line: Example 13: micronutrient salt composition applied to plants as in Example 1, toxicity scoring. Conditions: after a period of 3-30 days. It counts as in vivo. Here is the method:
Toxicity scoring is performed as described in Table 7.

With `O=[N+]([O-])[O-].O=[N+]([O-])[O-].[Ca+2]` [calcium nitrate], the “herbicidal effects on the weed plants” value in the experiment on weeds growing in soil (in vivo) is given as “has herbicidal effects”.
Turning to `O.O.O.O.O=BOB1OB(OB=O)OB2OB([O-])OB([O-])OB(O1)O2.[Na+].[Na+]` [disodium octaborate tetrahydrate], the “phytotoxic control (in words)” value is “Excellent phytotoxic control” in experiment [1] and “Partial control” in experiment [2].
Turning to `N.N.O=S(=O)(O)O` [Ammonium sulfate], the “responsiveness (in words)” value in experiment [3] was “considerably less responsive”. The “herbicidal effects on the weed plants” value with weeds growing in soil (aqueous solution with citric acid and a surfactant, sprayed) is “has herbicidal effects”. Besides, the “toxicity level (in words)” value in experiment [4] is listed as “severe-to-fatal”.
As for `O=P([O-])(O)O.[K+]` [Mono-potassium phosphate], the “phytotoxic effect (in words)” value in [5] (1.0M solution (so in the source), Days 8 through 18) is “severe-to-fatal”; in experiment [5] (2.0 molar test solution, Day 8 through Day 18, broadleaf samples (dicots)) it was “Severe-to-fatal”; in [6] (1.5 molar test solution), “minimal effect”; in [6] (2.0 molar test solution) it was “minimal effect”.
As to `O=[N+]([O-])[O-].O=[N+]([O-])[O-].[Mg+2]` [magnesium nitrate], in the experiment on weeds growing in soil (in vivo), the “herbicidal effects on the weed plants” value was “has herbicidal effects”.
With `O=C([O-])CC(O)(CC(=O)[O-])C(=O)[O-].[K+].[K+].[K+]` [K-citrate, potassium citrate], the average toxicity score in experiment [7] (1.0M) is on record as 4.0; in experiment [7] ([…]), 4.3.
Regarding `O=S(=O)([O-])[O-].[Zn+2]` [ZnSO4, Zinc Sulfate], the average toxicity score is reported as 4.3 in experiment [8] (1.0M, first of three values for “Days 521 through 32”); 4.4 in [8] (1.0M, second of three values for “Days 521 through 32”); 4.2 in [8] (1.0M, third of three values for “Days 521 through 32”); “approximately 4.5” in experiment [8] (1.0 molar solution, Day 21 through Day 32); 3.9 in experiment [8] (2.0 molar solution, Day 9).
For `O.O=S(=O)([O-])[O-].[Zn+2]` [Zn sulfate monohydrate], the plant death entry in the experiment with plants was “plant death is observed”.
